Measurements taken from US20250074911A1, “MACROCYCLIC BTK INHIBITORS” (Crossfire Oncology Holding B.V., priority 2021, published 2025).

Tests used:
[1] = target: full-length BTK C481S enzyme (Homo sapiens (Human), UniProt Q06187, C481S); assay: Biochemical kinase assay BTK C481S (IMAP)
Outline: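 IC50 values come from IMAP fluorescence polarization after quenching with progressive binding solution. The reaction ran 2 h at room temperature in the dark with 1.2 nM full-length C481S enzyme, 7 μM ATP and 50 nM fluorescein-labelled MBP-derived peptide, following a 1 h dark pre-incubation of compound with enzyme.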

[2] = target: full-length wt-BTK enzyme (Homo sapiens (Human), UniProt Q06187); assay: Biochemical kinase assay wt-BTK (IMAP)
full-length wt-BTK enzyme, sequence (Q06187 whole entry): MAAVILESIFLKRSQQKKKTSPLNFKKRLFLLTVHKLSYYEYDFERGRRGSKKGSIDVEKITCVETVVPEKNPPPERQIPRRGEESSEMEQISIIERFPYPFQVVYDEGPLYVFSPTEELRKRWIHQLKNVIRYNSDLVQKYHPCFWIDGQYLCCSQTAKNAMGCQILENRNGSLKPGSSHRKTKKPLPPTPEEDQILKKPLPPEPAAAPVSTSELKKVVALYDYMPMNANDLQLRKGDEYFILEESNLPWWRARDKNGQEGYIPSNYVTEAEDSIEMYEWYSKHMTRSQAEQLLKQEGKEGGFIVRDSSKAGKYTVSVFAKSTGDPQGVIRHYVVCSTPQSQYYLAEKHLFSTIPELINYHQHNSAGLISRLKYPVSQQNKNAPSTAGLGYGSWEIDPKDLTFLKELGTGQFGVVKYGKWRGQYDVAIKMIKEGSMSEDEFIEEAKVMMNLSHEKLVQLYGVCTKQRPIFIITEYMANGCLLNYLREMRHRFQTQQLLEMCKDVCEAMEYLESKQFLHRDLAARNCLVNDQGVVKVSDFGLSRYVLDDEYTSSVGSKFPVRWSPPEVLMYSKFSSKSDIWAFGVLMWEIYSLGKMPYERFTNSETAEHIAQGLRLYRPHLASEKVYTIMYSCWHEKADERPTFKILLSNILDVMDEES
Outline: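 Compound and enzyme (final 1.2 nM) were pre-incubated for 1 h at RT, after which the reaction was started with 4 μM ATP plus 50 nM fluorescein-MBP substrate peptide. After 2 h in the dark, the IMAP progressive binding reagent stopped the reaction, and phosphorylation was read by fluorescence polarization.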

[3] = tested on: REC-1 T474I cell lines; assay: Cell proliferation assay REC-1 BTK T474I knock-in cells (ATPlite, 72 hours); type: cell-based; settings: Homo sapiens, Rec1; 72 hours; read-out: IC50 REC-1 T474I
Outline: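 REC-1 cells carrying CRISPR knock-in mutant BTK, single-cell cloned and sequence-confirmed, were exposed to compound for 72 h and read by ATPlite luminescence. Percentage growth was calculated against the signal at the start of incubation and against untreated 0.3% DMSO wells as maximum growth.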

[4] = tested on: wt-REC-1 mantle cell lymphoma cells; assay: Cell proliferation assay wt-REC-1 (ATPlite, 72 hours); type: cell-based; settings: 72 h; read-out: IC50 wt-REC-1
Outline: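 Luminescent viability read over 72 h, start-of-incubation signal recorded separately to separate growth from cell death. Percentage growth referenced to compound-free 0.3% DMSO wells; IC50 from 4-parameter logistic fit.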

[5] = tested on: wt-TMD8 diffuse large B-cell lymphoma cells; assay: Cell proliferation assay wt-TMD8 (ATPlite, 120 hours); type: cell-based; settings: B-cell; wt-TMD8 cells, 120 hours, ATPlite; read-out: IC50 wt-TMD8
Outline: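 Readout is percentage growth from ATPlite 1Step luminescence after 5 days (120 h) compound treatment of wt-TMD8 lymphoma cells (1600/well, RPMI-1640 + 10% FBS). Time-zero signal separates growth inhibition from cell kill; 0.3% DMSO wells without compound define maximal growth.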

[6] = target: wt-BTK (Homo sapiens (Human), UniProt Q06187); assay: Binding kinetics measurements (Surface Plasmon Resonance) on wt-BTK; settings: target residence time, SPR
wt-BTK, sequence (Q06187 whole entry): as above
Method: (§1) Binding kinetics measurements on wt-BTK, BTK […], BTK […], BTK […] and BTK […] (Surface Plasmon Resonance) Streptavidin-coated chips (Cat. No. BR100531), disposables and maintenance kits for Biacore were purchased from Cytiva (Eindhoven, The Netherlands). […] Remaining streptavidin was blocked with biocytin. Immobilization was performed at 4° C. Subsequent assay steps were conducted at 22° C. After changing buffer to Biacore buffer with 1% (v/v) dimethylsulfoxide (DMSO), a pre-run was performed for a period of at least 30 min at a flow rate of 30 μl/min to obtain a stable surface. The kinetic constants of the compounds were determined with single cycle kinetics with five consecutive injections with an increasing compound concentration with ranges of 3.16-316 nM. […] To circumvent problems of mass transport limitation, a flow rate of 30 μl/min was used. A blank run with the same conditions was performed before the compound was injected. The SPR sensorgrams were analyzed with Biacore Evaluation Software by using a method of double referencing. First the reference channel was subtracted from the channel containing immobilized protein. Subsequently, the reference curve obtained with buffer injections was subtracted. […] Compounds that bound according to an induced fit model were fitted with a two-state reaction model. The kinetic constants (ka, […], KD) of duplicates were geometrically averaged. […] Target residence for an induced fit model was calculated as described (Tummino and Copeland, 2008).

[7] = target: BTK T474I (Homo sapiens (Human), UniProt Q06187, T474I); assay: Binding kinetics measurements (Surface Plasmon Resonance) on BTK T474I; settings: target residence time, SPR
BTK T474I, sequence (Q06187 whole entry T474I): as the sequence (Q06187 whole entry) above, with T474I counted along it
Method: as §1

full-length BTK C481S enzyme, sequence (Q06187 whole entry C481S): as the sequence (Q06187 whole entry) above, with C481S counted along it

Row | SMILES | IC50 [1] | IC50 [2] | IC50 [3] | IC50 [4] | IC50 [5] | Tau (h) wt-BTK (Act) [6] | Tau (h) BTK T474I (Act) [7]
1 | C[C@@H]1CC(=O)N[C@@H]2CCC[C@H](C2)n2nc(-c3ccc(C(=O)Nc4cc(C(F)(F)F)ccn4)cc3)c3c(N)ncc(c32)/C=C/CN1 [Example 160] | < 5 nM | < 5 nM | 100 to 500 nM | < 100 nM | < 100 nM | – | –
2 | C[C@H]1CC(=O)N[C@@H]2CCC[C@H](C2)n2nc(-c3ccc(C(=O)Nc4cc(C#N)ccn4)cc3)c3c(N)ncc(c32)/C=C/CCO1 [Example 161] | < 5 nM | < 5 nM | < 100 nM | < 100 nM | < 100 nM | – | –
3 | CC(=O)N1CCC/C=C/c2cnc(N)c3c(-c4ccc(C(=O)Nc5cc(C(F)(F)F)ccn5)cc4)nn(c23)[C@@H]2CCC[C@H](C2)NC(=O)C1 [Example 167] | < 5 nM | < 5 nM | 100 to 500 nM | < 100 nM | < 100 nM | – | –
4 | C[C@@H]1CCn2nc(-c3cnn(Cc4ccccc4)c3)c3c(N)ncc(c32)/C=C/CCCCCC(=O)N1 [Example 171] | 50 to 500 nM | 50 to 500 nM | 500 to 10000 nM | 1000 to 10000 nM | 1000 to 10000 nM | – | –
5 | C[C@@H]1CCn2nc(-c3ccc(Oc4ccccc4)cc3)c3c(N)ncc(c32)/C=C/CCCCCC(=O)N1 [Example 173] | < 5 nM | < 5 nM | 500 to 10000 nM | < 100 nM | < 100 nM | – | –
6 | Nc1ncc2n3c(nc(-c4ccc(C(=O)Nc5cc(C(F)(F)F)ccn5)cc4)c13)[C@@H]1CCC[C@H](C1)NC(=O)CCOCC/C=C/2 [Example 177] | < 5 nM | < 5 nM | 100 to 500 nM | < 100 nM | < 100 nM | – | –
7 | Nc1ncc2n3c(nc(-c4ccc(C(=O)Nc5cc(C(F)(F)F)ccn5)cc4)c13)[C@@H]1CCC[C@H](C1)NC(=O)CCOC/C=C/2 [Example 178] | < 5 nM | < 5 nM | 100 to 500 nM | < 100 nM | < 100 nM | – | –
8 | N#Cc1ccnc(NC(=O)c2ccc(-c3nn4c5c(cnc(N)c35)/C=C/CCOCCC(=O)N[C@@H]3CC[C@@H]4C3)cc2)c1 [Example 185] | < 5 nM | < 5 nM | < 100 nM | < 100 nM | < 100 nM | 10.79 h | 1.26 h
9 | COc1cc(-c2nn3c4c(cnc(N)c24)/C=C/COCCC(=O)N[C@@H]2CCC[C@@H]3C2)ccc1C(=O)Nc1cc(C(F)(F)F)ccn1 [Example 188] | < 5 nM | < 5 nM | < 100 nM | < 100 nM | < 100 nM | – | >24 h
10 | CC(=O)N1CC/C=C/c2cnc(N)c3c(-c4ccc(C(=O)Nc5cc(C(F)(F)F)ccn5)cc4)nn(c23)[C@@H]2CCC[C@H](C2)NC(=O)C[C@H]1C [Example 190] | < 5 nM | < 5 nM | 500 to 10000 nM | 1000 to 10000 nM | < 100 nM | – | –
11 | C[C@@H]1CC(=O)N[C@@H]2CCC[C@H](C2)n2nc(-c3ccc(C(=O)Nc4cc(F)ccn4)cc3)c3c(N)ncc(c32)/C=C/CCN1 [Example 191] | < 5 nM | < 5 nM | < 100 nM | < 100 nM | < 100 nM | – | –
12 | COc1cc(-c2nn3c4c(cnc(N)c24)/C=C/CCN[C@H](C)CC(=O)N[C@@H]2CCC[C@@H]3C2)ccc1C(=O)Nc1cc(C(F)(F)F)ccn1 [Example 194] | < 5 nM | < 5 nM | 500 to 10000 nM | < 100 nM | < 100 nM | – | –
13 | Nc1ncc2c3c1c(-c1ccc(C(=O)Nc4cc(F)ccn4)cc1)nn3[C@@H]1CCC[C@H](C1)NC(=O)CCCCC/C=C/2 [Example 196] | < 5 nM | < 5 nM | < 100 nM | < 100 nM | < 100 nM | – | –
